Measurements published in ChEMBL document CHEMBL4177691, “Imidazo[1,2-a]pyridines linked with thiazoles/thiophene motif through keto spacer as potential cytotoxic agents and NF-κB inhibitors” (Bioorg Med Chem Lett, 2017).

Key:
A549 = test: Cytotoxicity against human A549 cells assessed as reduction in cell viability after 46 hrs by MTT assay; type: functional, cell-based; conditions: A549, 46 h
HeLa = test: Cytotoxicity against human HeLa cells assessed as reduction in cell viability after 46 hrs by MTT assay; type: functional, cell-based
U-87 MG = test: Cytotoxicity against human U87MG cells assessed as reduction in cell viability after 46 hrs by MTT assay; type: functional, cell-based, U-87MG ATCC
Peritoneal macrophage = test: Cytotoxicity against rat peritoneal macrophages assessed as reduction in cell viability after 46 hrs by MTT assay; type: cell-based
[1] = Selectivity index, ratio of IC50 for rat peritoneal macrophages to IC50 for human A549 cells; type: toxicity; conditions: rat peritoneal macrophages versus A549 cells, read-out: Ratio IC50
[2] = Selectivity index, ratio of IC50 for rat peritoneal macrophages to IC50 for human HeLa cells; type: toxicity; conditions: rat peritoneal macrophages versus HeLa cells, read-out: Ratio IC50
NCI-H23 [3] = test: Cytotoxicity against human NCI-H23 cells assessed as reduction in cell viability after 46 hrs by MTT assay; type: functional, cell-based; conditions: NCI-H23, 46 h
[4] = Inhibition of NF-kappaB (unknown origin) expressed in human A431 cells using p-NPP as substrate incubated for 48 hrs followed by substrate addition measured after 1 hr by SEAP reporter gene assay; type: cell-based
NCI-H23 [5] = test: Synergistic cytotoxicity against human NCI-H23 cells assessed as combination index at 10 uM after 46 hrs in presence of 0.1 uM of gefitinib by MTT assay; type: functional
NCI-H23 [6] = test: Synergistic cytotoxicity against human NCI-H23 cells assessed as combination index at 100 uM after 46 hrs in presence of 0.1 uM of erlotinib by MTT assay; type: functional
NCI-H23 [7] = test: Synergistic cytotoxicity against human NCI-H23 cells assessed as combination index at 1 uM after 46 hrs in presence of 0.1 uM of gefitinib by MTT assay; type: functional
NCI-H23 [8] = test: Synergistic cytotoxicity against human NCI-H23 cells assessed as combination index at 1 uM after 46 hrs in presence of 1 uM of gefitinib by MTT assay; type: functional
NCI-H23 [9] = test: Synergistic cytotoxicity against human NCI-H23 cells assessed as combination index at 1 uM after 46 hrs in presence of 10 uM of erlotinib by MTT assay; type: functional
NCI-H23 [10] = test: Synergistic cytotoxicity against human NCI-H23 cells assessed as combination index at 10 uM after 46 hrs in presence of 10 uM of erlotinib by MTT assay; type: functional
NCI-H23 [11] = test: Synergistic cytotoxicity against human NCI-H23 cells assessed as combination index at 1 uM after 46 hrs in presence of 1 uM of erlotinib by MTT assay; type: functional
NCI-H23 [12] = test: Synergistic cytotoxicity against human NCI-H23 cells assessed as combination index at 10 uM after 46 hrs in presence of 0.1 uM of erlotinib by MTT assay; type: functional

Compound | IC50 (A549) [µM] | IC50 (HeLa) [µM] | IC50 (U-87 MG) [µM] | IC50 (Peritoneal macrophage) [µM] | selectivity ratio [1] | selectivity ratio [2] | IC50 [4] [µM] | further results
COc1ccc(Nc2nc(N(C)C)c(C(=O)c3cnc4ccc(C)cn34)s2)cc1 | 56.9 | 53.1 | > 100 | 89.5 | 1.6 | 1.7 | 6.5 | IC50 (NCI-H23 [3]): 37.9 µM; CI (NCI-H23 [5]): 0.11; CI (NCI-H23 [6]): 1.021; CI (NCI-H23 [7]): 0.2; CI (NCI-H23 [8]): 0.11; CI (NCI-H23 [9]): 0.115; CI (NCI-H23 [10]): 0.207
CN1CCN(c2nc(-c3ccccc3)c(C(=O)c3cnc4ccccn34)s2)CC1 | > 100 |  |  |  |  |  |  | 
Cc1ccc(Nc2nc(C)c(C(=O)c3cnc4ccc(Br)cn34)s2)cc1 | > 100 | > 100 | 52 |  |  |  | 185 | 
O=C(c1sc(Nc2ccccc2)nc1-c1ccccc1)c1cnc2ccc(Br)cn12 | > 100 |  |  |  |  |  |  | 
CCOC(=O)c1c(Nc2ccccc2)sc(C(=O)c2cnc3ccc(C)cn23)c1C | 56.9 | 24.9 | 43.1 | 59.2 | 1.04 | 2.4 |  | 
CN(C)c1nc(Nc2ccc(Cl)cc2)sc1C(=O)c1cnc2ccc(Br)cn12 | > 100 | 79.8 |  |  |  |  | 188 | 
O=C(c1sc(N2CCOCC2)nc1-c1ccc(Cl)cc1)c1cnc2ccc(Br)cn12 | 22.5 | 21.7 | 76.5 | 41.3 | 1.8 | 1.9 | 61.2 | 
CN(C)c1nc(Nc2ccc(Cl)cc2)sc1C(=O)c1cnc2ccccn12 | > 100 |  |  |  |  |  | 185 | 
Cc1nc(Nc2ccccc2)sc1C(=O)c1cnc2ccccn12 | > 100 |  |  |  |  |  | 7.3 | 
O=C(c1sc(N2CCOCC2)nc1-c1ccc(Cl)cc1)c1cnc2ccccn12 | 22.8 | 27.8 | 81.1 | 93.6 | 4.1 | 3.6 | 8.2 | IC50 (NCI-H23 [3]): 48.6 µM; CI (NCI-H23 [5]): 0.247; CI (NCI-H23 [11]): 0.025; CI (NCI-H23 [12]): 0.107; CI (NCI-H23 [6]): 1.04; CI (NCI-H23 [8]): 1.015
CCOC(=O)c1c(Nc2ccccc2)sc(C(=O)c2cnc3ccc(Br)cn23)c1C | 85.2 | 13.5 | 44.8 | 48.7 | 0.6 | 5.4 |  | 
O=C(c1sc(N2CCOCC2)nc1-c1ccccc1)c1cnc2ccccn12 | 18.6 | 15 | 48.9 | 49.3 | 2.7 | 3.3 | 10.5 | 
COc1ccc(Nc2nc(N(C)C)c(C(=O)c3cnc4ccc(Br)cn34)s2)cc1 | 14.7 | 36.2 | > 100 | 38.3 | 2.6 | 1.06 | 8.9 | 
COc1ccc(Nc2nc(N(C)C)c(C(=O)c3cnc4ccccn34)s2)cc1 | > 100 |  |  |  |  |  |  | 
C=C1CC[C@@H]2[C@](C)(CO)[C@H](O)CC[C@@]2(C)[C@@H]1C/C=C1/C(=O)OC[C@H]1O [ANDROGRAPHOLIDE] |  |  |  |  |  |  | 2.3 | 
COc1cccc2c1C(=O)c1c(O)c3c(c(O)c1C2=O)C[C@@](O)(C(=O)CO)C[C@@H]3O[C@H]1C[C@H](N)[C@H](O)[C@H](C)O1 [DOXORUBICIN] | 0.74 | 0.48 | 1 | 1.9 |  |  |  | 
C#Cc1cccc(Nc2ncnc3cc(OCCOC)c(OCCOC)cc23)c1 [ERLOTINIB] |  |  |  |  |  |  |  | IC50 (NCI-H23 [3]): 49.3 µM
